pIC50, pKi: −log10 of the molar value.

4 compounds from BindingDB's records for doi:10.1021/ml5002954 (Uppsala University, 2014) can be followed below.

For test [1], the target named is Substance P 1-7 binding site. Nature of the test: Displacement of [3H]-SP1-7 from SP1-7 binding site by scintillation counting analysis.
The target in test [2] is Substance P 1-7 binding site. Briefly: Binding affinity to SP1-7 binding site.

Take `O=C(N[C@@H](Cc1ccccc1)C(=O)NNC(=O)c1ccccc1)OCc1ccccc1`: the pIC50 in test [1] is 8.19. On the same count and under the same terms, next, `O=C(N[C@@H](Cc1ccccc1)c1nnc(-c2ccccc2)o1)OCc1ccccc1`: 8.05; `N#CNC(=O)[C@H](Cc1ccccc1)NC(=O)OCc1ccccc1`: 7.77. In test [1], `NC(=O)[C@H](Cc1ccccc1)NC(=O)OCc1ccccc1` had a negative-log IC50 (pIC50) of 8.21 and a pKi of 8.28. This compound had a negative-log Ki (pKi) in test [2] of 8.28.
